Results from ChEMBL document CHEMBL1201862, “PubChem BioAssay data set” (2004).
The source made the active and inactive calls.

Experiments:
[1] = molecular target: T1, Exodeoxyribonuclease V (Escherichia coli (strain K12), UniProt P04993+P07648+P08394); test: E. coli RecBCD inhibitors, dose response, counter-screen for AddAB inhibitor project, absorbance, V66 E. coli, mutant T4 phage (AID 492957); type: functional, cell-based, Escherichia coli str. K-12 substr. MG1655
T1 sequence (P04993 whole entry): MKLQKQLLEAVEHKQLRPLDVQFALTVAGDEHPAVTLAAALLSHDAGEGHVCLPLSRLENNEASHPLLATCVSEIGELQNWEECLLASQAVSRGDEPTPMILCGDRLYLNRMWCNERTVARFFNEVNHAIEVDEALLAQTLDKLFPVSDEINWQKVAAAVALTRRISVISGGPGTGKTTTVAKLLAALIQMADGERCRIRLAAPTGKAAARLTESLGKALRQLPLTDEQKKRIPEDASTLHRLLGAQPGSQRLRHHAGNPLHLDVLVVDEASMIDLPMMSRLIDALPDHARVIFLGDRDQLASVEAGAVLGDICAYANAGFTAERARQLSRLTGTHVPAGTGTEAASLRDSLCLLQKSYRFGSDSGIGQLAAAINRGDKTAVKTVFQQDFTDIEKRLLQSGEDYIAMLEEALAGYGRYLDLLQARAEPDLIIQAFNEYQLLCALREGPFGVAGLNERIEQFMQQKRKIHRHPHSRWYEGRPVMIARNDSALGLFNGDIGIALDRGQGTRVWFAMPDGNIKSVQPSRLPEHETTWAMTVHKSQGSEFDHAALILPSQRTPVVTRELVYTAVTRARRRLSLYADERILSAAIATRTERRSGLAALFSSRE
T1 sequence (P07648 whole entry): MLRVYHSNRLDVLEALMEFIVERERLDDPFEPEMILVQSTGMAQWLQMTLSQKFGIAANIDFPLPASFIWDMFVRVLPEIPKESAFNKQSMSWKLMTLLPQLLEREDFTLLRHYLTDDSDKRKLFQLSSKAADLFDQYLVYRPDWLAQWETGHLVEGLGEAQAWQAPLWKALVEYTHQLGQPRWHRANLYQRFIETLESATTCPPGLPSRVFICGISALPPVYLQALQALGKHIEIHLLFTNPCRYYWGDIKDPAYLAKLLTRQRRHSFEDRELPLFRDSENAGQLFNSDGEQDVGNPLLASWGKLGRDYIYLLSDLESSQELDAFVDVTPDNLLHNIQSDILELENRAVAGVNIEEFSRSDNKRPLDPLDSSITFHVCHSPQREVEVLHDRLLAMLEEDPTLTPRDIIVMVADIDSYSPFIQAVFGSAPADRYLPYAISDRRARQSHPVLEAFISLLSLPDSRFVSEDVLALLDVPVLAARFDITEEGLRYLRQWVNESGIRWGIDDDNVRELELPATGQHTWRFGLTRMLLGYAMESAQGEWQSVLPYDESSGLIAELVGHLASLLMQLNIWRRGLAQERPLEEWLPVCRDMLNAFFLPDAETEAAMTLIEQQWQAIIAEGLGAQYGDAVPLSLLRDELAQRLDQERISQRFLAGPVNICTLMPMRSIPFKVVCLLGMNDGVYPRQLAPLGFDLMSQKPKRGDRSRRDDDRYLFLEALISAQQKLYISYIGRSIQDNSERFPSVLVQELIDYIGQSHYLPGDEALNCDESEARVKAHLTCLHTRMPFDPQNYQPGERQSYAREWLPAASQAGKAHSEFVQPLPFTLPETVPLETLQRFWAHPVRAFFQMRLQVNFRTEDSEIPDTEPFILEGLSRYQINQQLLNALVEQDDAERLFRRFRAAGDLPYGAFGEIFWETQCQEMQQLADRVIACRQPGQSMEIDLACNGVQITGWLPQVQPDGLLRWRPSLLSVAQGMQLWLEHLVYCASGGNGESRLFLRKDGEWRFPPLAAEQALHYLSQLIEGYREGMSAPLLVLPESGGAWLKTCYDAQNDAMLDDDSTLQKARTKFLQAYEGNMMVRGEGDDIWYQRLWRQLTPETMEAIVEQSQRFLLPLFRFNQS
T1 sequence (P08394 whole entry): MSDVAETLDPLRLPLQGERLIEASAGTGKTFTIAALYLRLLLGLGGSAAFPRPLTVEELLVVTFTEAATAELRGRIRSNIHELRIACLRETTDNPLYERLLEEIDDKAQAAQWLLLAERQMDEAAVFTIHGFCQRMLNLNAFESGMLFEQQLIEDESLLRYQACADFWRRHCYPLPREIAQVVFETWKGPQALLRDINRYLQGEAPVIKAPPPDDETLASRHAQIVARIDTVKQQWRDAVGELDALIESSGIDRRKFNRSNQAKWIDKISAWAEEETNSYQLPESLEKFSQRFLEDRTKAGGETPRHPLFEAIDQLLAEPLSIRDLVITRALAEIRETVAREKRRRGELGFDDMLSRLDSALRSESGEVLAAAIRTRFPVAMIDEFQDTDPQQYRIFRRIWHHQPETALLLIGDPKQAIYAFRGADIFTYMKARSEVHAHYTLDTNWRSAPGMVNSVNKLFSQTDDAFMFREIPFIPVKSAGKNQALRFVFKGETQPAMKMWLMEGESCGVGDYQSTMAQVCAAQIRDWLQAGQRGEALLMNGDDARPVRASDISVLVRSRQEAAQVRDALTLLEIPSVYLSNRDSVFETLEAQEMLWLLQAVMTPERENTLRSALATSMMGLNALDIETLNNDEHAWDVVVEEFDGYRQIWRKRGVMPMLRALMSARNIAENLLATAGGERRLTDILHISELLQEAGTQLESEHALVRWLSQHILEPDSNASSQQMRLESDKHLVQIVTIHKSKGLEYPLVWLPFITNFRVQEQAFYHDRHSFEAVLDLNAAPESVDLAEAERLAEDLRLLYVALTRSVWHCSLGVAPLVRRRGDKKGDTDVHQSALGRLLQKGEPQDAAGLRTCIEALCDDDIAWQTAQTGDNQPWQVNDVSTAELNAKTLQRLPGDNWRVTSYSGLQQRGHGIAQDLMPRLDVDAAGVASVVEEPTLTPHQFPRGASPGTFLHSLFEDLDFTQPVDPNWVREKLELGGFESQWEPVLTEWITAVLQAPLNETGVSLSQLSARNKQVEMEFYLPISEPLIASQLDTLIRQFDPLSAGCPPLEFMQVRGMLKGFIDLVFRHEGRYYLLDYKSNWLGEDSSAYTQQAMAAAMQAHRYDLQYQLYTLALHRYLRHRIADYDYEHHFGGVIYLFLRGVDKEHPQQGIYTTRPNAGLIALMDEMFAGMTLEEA

[2] = system: Streptococcus sp. 'group A'; test: growth inhibition of control SK(-) GAS strain, dose response, counter-screen for streptokinase expression inhibitor project, luminescence, kanamycin, BacTiterGlo, confirmation (AID 1900); type: functional, organism-based

Row | Compound | IC50 [1] | EC50 [2]
1 | O=C(Nc1cccc(NC(=O)c2ccccc2Cl)c1)c1ccc([N+](=O)[O-])o1 | > 119 µM (inactive) | 4.47 µM (active)
2 | COc1ccc(CC2=CC(=O)c3ccccc3C2=O)cc1 |  | 11.4 µM (active)
3 | Cn1c(O)c(/C=N/NC(=O)c2cc3ccccc3cc2O)c2ccccc21 | > 119 µM (inactive) | 
